Results: PubChem BioAssay AID330 (DTP/NCI, 2004)
Inconclusive results and toxic doses are left out. Rule for the calls: active = survival T/C of 150% or more; inactive = T/C below 125% in these data.

Test system: P388 leukemia ip, CD2F1 mice, survival T/C
Assay: NCI In Vivo Anticancer Drug Screen. Data for tumor model P388 Leukemia (intraperitoneal) in CD2F1 (CDF1) mice
Conditions: endpoint: median survival time, higher = longer survival
Method in brief: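 Mice carrying the transplanted tumor received test compound or vehicle. Survival was recorded in each group, and the value is the treated-group measurement divided by that of the vehicle-treated control group.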

[1] = dose: 50.0 mg/kg/injection, schedule: Q01DX009 (ip), vehicle: saline with Tween-80
[2] = dose: 50.0 mg/kg/injection, schedule: Q01DX005 (ip), vehicle: Klucel (hydroxypropylcellulose) (HPC)
[3] = dose: 60.0 mg/kg/injection, schedule: Q01DX005 (ip), vehicle: Klucel (hydroxypropylcellulose) (HPC)
[4] = dose: 100.0 mg/kg/injection, schedule: Q01DX005 (ip), vehicle: Klucel (hydroxypropylcellulose) (HPC)
[5] = dose: 50.0 mg/kg/injection, schedule: Q04DX002 (ip), vehicle: saline with Tween-80
[6] = dose: 100.0 mg/kg/injection, schedule: Q04DX002 (ip), vehicle: saline with Tween-80
[7] = dose: 200.0 mg/kg/injection, schedule: Q04DX002 (ip), vehicle: saline with Tween-80
[8] = dose: 100.0 mg/kg/injection, schedule: Q01DX009 (ip), vehicle: saline with Tween-80
[9] = dose: 200.0 mg/kg/injection, schedule: Q01DX009 (ip), vehicle: saline with Tween-80
[10] = dose: 12.5 mg/kg/injection, schedule: Q01DX009 (ip), vehicle: saline
[11] = dose: 25.0 mg/kg/injection, schedule: Q01DX009 (ip), vehicle: saline
[12] = dose: 50.0 mg/kg/injection, schedule: Q01DX009 (ip), vehicle: saline
[13] = dose: 200.0 mg/kg/injection, schedule: Q01DX005 (ip), vehicle: Klucel (hydroxypropylcellulose) (HPC)
[14] = dose: 60.0 mg/kg/injection, schedule: Q01DX005 (ip), vehicle: saline
[15] = dose: 50.0 mg/kg/injection, schedule: Q01DX005 (ip), vehicle: saline with Tween-80
[16] = dose: 100.0 mg/kg/injection, schedule: Q01DX009 (ip), vehicle: saline
[17] = dose: 200.0 mg/kg/injection, schedule: Q01DX009 (ip), vehicle: saline
[18] = dose: 100.0 mg/kg/injection, schedule: Q01DX005 (ip), vehicle: saline with Tween-80
[19] = dose: 200.0 mg/kg/injection, schedule: Q01DX005 (ip), vehicle: saline with Tween-80

Measured: T/C

Cn1nc2c(c1-c1ccncc1)CCc1ccccc1-2
inactive: dose: 12.5 mg/kg/injection, schedule: Q01DX009 (ip), vehicle: other 110 % of control | dose: 25.0 mg/kg/injection, schedule: Q01DX009 (ip), vehicle: other 105 % of control | dose: 50.0 mg/kg/injection, schedule: Q01DX009 (ip), vehicle: other 115 % of control | dose: 100.0 mg/kg/injection, schedule: Q01DX009 (ip), vehicle: other 107 % of control | dose: 200.0 mg/kg/injection, schedule: Q01DX009 (ip), vehicle: other 103 % of control

Clc1ccc(CSc2cnnc3ccccc23)c(Cl)c1
inactive: dose: 75.0 mg/kg/injection, schedule: Q01DX009 (ip), vehicle: suspension in saline 96 % of control | dose: 150.0 mg/kg/injection, schedule: Q01DX009 (ip), vehicle: suspension in saline 89 % of control | dose: 300.0 mg/kg/injection, schedule: Q01DX009 (ip), vehicle: suspension in saline 89 % of control

ClC1=C(Cl)C(Cl)=C(Cl)C1=Cc1ccccc1
inactive: dose: 6.25 mg/kg/injection, schedule: Q01DX009 (ip), vehicle: saline with Tween-80 108 % of control | dose: 12.5 mg/kg/injection, schedule: Q01DX009 (ip), vehicle: saline with Tween-80 118 % of control | dose: 25.0 mg/kg/injection, schedule: Q01DX009 (ip), vehicle: saline with Tween-80 117 % of control | [1] 123 % of control

CCN(CC)CCOC(=O)Nc1c(Cl)cccc1Cl
inactive: dose: 25.0 mg/kg/injection, schedule: Q01DX005 (ip), vehicle: Klucel (hydroxypropylcellulose) (HPC) 100 % of control | [2] 107 % of control | [3] 100 % of control | [4] 100 % of control

CCOC(=O)CCCCCOC1CCCCO1 (stereo unspecified)
inactive: dose: 60.0 mg/kg/injection, schedule: Q01DX005 (ip), vehicle: saline with Tween-80 98 % of control | dose: 120.0 mg/kg/injection, schedule: Q01DX005 (ip), vehicle: saline with Tween-80 97 % of control | dose: 240.0 mg/kg/injection, schedule: Q01DX005 (ip), vehicle: saline with Tween-80 103 % of control

O=C(O)/C=C(\Br)C(=O)O
inactive: dose: 100.0 mg/kg/injection, schedule: Q04DX002 (ip), vehicle: saline 95 % of control | dose: 200.0 mg/kg/injection, schedule: Q04DX002 (ip), vehicle: saline 90 % of control

CNC1C(O)C(NC)C2OC3(O)C(=O)CC(C)OC3OC2C1O (stereo unspecified)
inactive: [5] 101 % of control | dose: 100.0 mg/kg/injection, schedule: Q01DX005 (ip), vehicle: saline 101 % of control | [6] 101 % of control | dose: 200.0 mg/kg/injection, schedule: Q01DX005 (ip), vehicle: saline 100 % of control | [7] 98 % of control

Cc1cc2c(c3ncccc13)OCN(Cc1ccc(Cl)c(Cl)c1)C2
inactive: [1] 100 % of control | [8] 98 % of control | [9] 100 % of control

N#CC(C#N)C1C=C/C(=N\O)C1 (stereo unspecified)
inactive: [10] 99 % of control | [11] 101 % of control | [1] 109 % of control | [12] 102 % of control

COc1cccc2c1C(=O)c1c(O)c3c(c(O)c1C2=O)CC(O)(C(C)=O)CC3OC1CC(NC(=O)CN(C)C)C(O)C(C)O1 (stereo unspecified)
inactive: dose: 0.25 mg/kg/injection, schedule: Q01DX009 (ip), vehicle: water 109 % of control | dose: 0.5 mg/kg/injection, schedule: Q01DX009 (ip), vehicle: water 120 % of control

CNC(=O)c1ccccc1CNC(=S)Nc1cccc(C)c1
inactive: [2] 98 % of control | [4] 98 % of control | [13] 95 % of control

NC(=S)NC12CC3CC(CC(C3)C1)C2
inactive: [5] 99 % of control | [6] 98 % of control | [7] 98 % of control

O=P(O)(O)c1ccccc1P(=O)(O)O
inactive: [14] 105 % of control | dose: 120.0 mg/kg/injection, schedule: Q01DX005 (ip), vehicle: saline 93 % of control

CCCOc1cc2c(cc1C(C)c1ccc(OC)c(C)c1)OCO2 (stereo unspecified)
inactive: dose: 60.0 mg/kg/injection, schedule: Q01DX005 (ip), vehicle: saline + Tween-80 + alcohol 97 % of control | dose: 120.0 mg/kg/injection, schedule: Q01DX005 (ip), vehicle: saline + Tween-80 + alcohol 109 % of control | dose: 240.0 mg/kg/injection, schedule: Q01DX005 (ip), vehicle: saline + Tween-80 + alcohol 108 % of control

COc1c(O)cc2oc(-c3ccccc3)c(O)c(=O)c2c1OC
inactive: dose: 25.0 mg/kg/injection, schedule: Q01DX005 (ip), vehicle: Klucel + Tween-80 89 % of control | dose: 50.0 mg/kg/injection, schedule: Q01DX005 (ip), vehicle: Klucel + Tween-80 95 % of control | dose: 100.0 mg/kg/injection, schedule: Q01DX005 (ip), vehicle: Klucel + Tween-80 98 % of control | dose: 200.0 mg/kg/injection, schedule: Q01DX005 (ip), vehicle: Klucel + Tween-80 95 % of control

O=C(CCl)Nc1ccc(Cl)cc1C(=O)c1ccccc1
inactive: [1] 107 % of control | [8] 98 % of control | [9] 104 % of control

CS(=O)(=O)/N=C/N(CCc1ccccc1)c1ccccc1
inactive: [3] 101 % of control | dose: 120.0 mg/kg/injection, schedule: Q01DX005 (ip), vehicle: Klucel (hydroxypropylcellulose) (HPC) 99 % of control | dose: 240.0 mg/kg/injection, schedule: Q01DX005 (ip), vehicle: Klucel (hydroxypropylcellulose) (HPC) 99 % of control

NCC(O)COCc1ccccc1 (stereo unspecified)
inactive: [5] 100 % of control | dose: 100.0 mg/kg/injection, schedule: Q01DX001 (ip), vehicle: saline with Tween-80 90 % of control | [6] 100 % of control

CC(=O)Oc1cc(OCCCc2ccc(F)cc2)cc2ccc3ccccc3c12
inactive: [6] 92 % of control | dose: 400.0 mg/kg/injection, schedule: Q04DX002 (ip), vehicle: saline with Tween-80 92 % of control

COc1cc(CCN(C)C)c([N+](=O)[O-])cc1OC
inactive: [10] 90 % of control | [11] 89 % of control

COc1ccc(OC)c2c(NCCNCCO)cc(NCCNCCO)nc12
inactive: dose: 15.0 mg/kg/injection, schedule: Q01DX005 (ip), vehicle: saline 100 % of control | dose: 30.0 mg/kg/injection, schedule: Q01DX005 (ip), vehicle: saline 95 % of control | [14] 97 % of control

CCN(CC)CCCN(C)Cc1c(-c2ccccc2)oc(-c2ccccc2)c1Cl
inactive: dose: 6.25 mg/kg/injection, schedule: Q01DX005 (ip), vehicle: saline with Tween-80 106 % of control | dose: 12.5 mg/kg/injection, schedule: Q01DX005 (ip), vehicle: saline with Tween-80 106 % of control | dose: 25.0 mg/kg/injection, schedule: Q01DX005 (ip), vehicle: saline with Tween-80 107 % of control | [15] 104 % of control

COC(=O)N1CCc2c([nH]oc2=O)C1
inactive: [12] 90 % of control | [16] 88 % of control | [17] 89 % of control

C=CC(OC(C)=O)OC(C)=O
inactive: dose: 8.0 mg/kg/injection, schedule: Q01DX009 (ip), vehicle: saline 109 % of control | dose: 12.0 mg/kg/injection, schedule: Q01DX009 (ip), vehicle: saline 118 % of control | dose: 18.0 mg/kg/injection, schedule: Q01DX009 (ip), vehicle: saline 109 % of control

O=c1[nH]c2nc(Cl)nc(Cl)c2[nH]1
inactive: [15] 98 % of control | [18] 94 % of control | [19] 93 % of control

CCCCC1(Cc2ccccc2)SC(=O)NC1=O (stereo unspecified)
inactive: [15] 98 % of control | [18] 100 % of control | [19] 91 % of control

O=C(c1cc(Nc2ccnc3cc(Cl)ccc23)ccc1O)N1CCC(O)(c2ccccc2)CC1
inactive: [15] 102 % of control | [18] 108 % of control | [19] 109 % of control

Cc1ccc(N2CCOS(=O)OCC2)cc1
inactive: [15] 101 % of control | [18] 98 % of control | [19] 101 % of control

O=C(O)CNC(=O)C(CSCc1ccccc1)NC(=O)OCc1ccccc1 (stereo unspecified)
inactive: [2] 103 % of control | [1] 101 % of control | [4] 102 % of control | [8] 99 % of control | [13] 100 % of control | [9] 99 % of control

Cc1ccc(S(=O)(=O)N(C=O)c2ccccc2)cc1
inactive: [1] 90 % of control | [8] 90 % of control

NC(N)=NCCCCCC(=O)O
inactive: [12] 100 % of control | [16] 109 % of control

O=C(O)CN(CC(=O)O)Cc1cc(=O)[nH]c(=O)[nH]1
inactive: [12] 91 % of control | [16] 95 % of control | [17] 97 % of control
